“Also recorded” adds a separate entry of the source.
Tested on: Oxyuranus microlepidotus venom
Test: Thrombelastography in human plasma of venom procoagulant activity after isolated exposure of venom to compounds
Type: biochemical
Conditions: venom 1 μg/ml in plasma; for procoagulant activity of venom: venom exposed ≥5 min in PBS to 100 μM CORM-2, 100 μM RuCl3 or both
Protocol: Thrombelastographic analyses. The volumes of subsequently described plasmatic and other additives summed to a final volume of 360 μl. Samples were composed of 320 μl of plasma; 16.4 μl of PBS, 20 μl of 200 mM CaCl2), and 3.6 μl of PBS or venom mixture, which were pipetted into a disposable cup in a Thrombelastograph® hemostasis system (Model 5000, Haemonetics Inc., Braintree, MA, USA) at 37° C., and then rapidly mixed by moving the cup up against and then away from the plastic pin five times. The following viscoelastic parameters described previously (see, Nielsen V G (2019) J Thromb Thrombolysis 47, 73-79; Gessner G, et al., (2017) Eur J Pharmacol 815, 33-41; Nielsen V G, Wagner M T, Frank N (2020) Int J Mol Sci 21, 2082; Lazić D, Arsenijević A, Puchta R, Bugarčić ŽD, Rilak A (2016) Dalton Trans 45, 4633; Hanif M, et al., (2017) ChemPlusChem 82, 841-847) were measured: time to maximum rate of thrombus generation (TMRTG): this is the time interval (minutes) observed prior to maximum speed of clot growth; maximum rate of thrombus generation (MRTG): this is the maximum velocity of clot growth observed (dynes/cm^2/second); and total thrombus generation (TTG, dynes/cm^2), the final viscoelastic resistance observed after clot formation.
O. microlepidotus. This venom was exposed to 0 or 100 μM CORM-2 in the presence of 0 or 100 μM RuCl3 in PBS for at least 5 minutes at room temperature prior to placement into plasma followed immediately with commencement of thrombelastographic analysis. The final concentration of this venom in plasma was 1 μg/ml.
Given the aforementioned, the experimental conditions utilized were: 1) V condition—venom in PBS; 2) Ru(II) condition—venom exposed to CORM-2; 3) Ru(III) condition—venom exposed to RuCl3; 4) Ru(II+III) condition—venom exposed to CORM-2 and RuCl3 simultaneously. After the 5 minute period at room temperature, 3.6 μl of one of these solutions was added to the plasma sample in the plastic thrombelastograph cup.
The volumes of subsequently described plasmatic and other additives summed to a final volume of 360 μl. Samples were composed of 320 μl of plasma; 16.4 μl of PBS, 20 μl of 200 mM CaCl2), and 3.6 μl of PBS or venom mixture, which were pipetted into a disposable cup in a Thrombelastograph® hemostasis system (Model 5000, Haemonetics Inc., Braintree, MA, USA) at 37° C., and then rapidly mixed by moving the cup up against and then away from the plastic pin five times. The following viscoelastic parameters described previously (see, Nielsen, V. G. J Thromb Thrombolysis 2019, 47, 73-79; Gessner, G.; et al., Eur J Pharmacol 2017, 815, 33-41; Nielsen, V. G.; Wagner, M. T.; Frank, N. Int J Mol Sci 2020, 21, 2082; Lazid, D.; et al., Dalton Trans 2016, 45, 4633; Hanif, M.; et al., ChemPlusChem 2017, 82, 841-847) were measured: time to maximum rate of thrombus generation (TMRTG): this is the time interval (minutes) observed prior to maximum speed of clot growth; maximum rate of thrombus generation (MRTG): this is the maximum velocity of clot growth observed (dynes/cm2/second); and total thrombus generation (TTG, dynes/cm2), the final viscoelastic resistance observed after clot formation. […]

[1] = 100 μM CORM-2, 100 μM RuCl3 or both

Row | SMILES | maximum rate of thrombus generation (MRTG) [1] | time to maximum rate of thrombus generation (TMRTG) [1] | total thrombus generation (TTG) [1] | procoagulant activity of venom
1 | [C-]#[O+].[C-]#[O+].[C-]#[O+].[C-]#[O+].[C-]#[O+].[C-]#[O+].[Cl][Ru][Cl].[Cl][Ru][Cl] [CORM-2, tricarbonyldichlororuthenium(II) dimer] | decrease | prolonged; also recorded: significant increase | decrease | significant decrease; also recorded: procoagulant activity inhibition
2 | [Cl][Ru]([Cl])[Cl] [RuCl3, ruthenium(III) chloride] |  |  |  | did not significantly affect

Reference: patent publication US20260216239A1 (Arizona Board of Regents on Behalf of the University of …, priority 2020, published 2026)
